Like-named read-outs stand apart in the source and are kept apart here.
How the values were obtained:
[1] = target: T1, recombinant human norepinephrine transporter (Homo sapiens, UniProt P23975); assay: Norepinephrine functional uptake assay for human reuptake transporter; type: cell-based; settings: [3H]norepinephrine uptake, HEK293 or MDCK cells expressing human norepinephrine transporter
T1 construct: expressed in transfected cells; host or cells: HEK293 or MDCK
Description: Norepinephrine Functional Uptake Assay for Human Reuptake Transporter
The cells were plated before the assay. Test compound and/or vehicle was preincubated with cells in modified HEPES buffer pH 7.1 or pH 7.4 for 20 minutes at 18 to 25° C. . […] After the cells were washed to remove [^3H]norepinephrine not internalized, the cells were lysed, and the amount of tritium in the cell lysate was measured using a liquid scintillation counter to determine [^3H]norepinephrine uptake. Non-specific binding of tritium was measured in a control reaction containing 10 μM imipramine (or 10 μM nisoxetine), and was subtracted from the counts for assays to correct for non-specific binding of tritium. Reduction of [^3H]norepinephrine uptake by 50 percent or more (≧50%) relative to an uninhibited control reaction indicates significant inhibitory activity.

[2] = target: T2, recombinant human serotonin transporter (Homo sapiens, UniProt P31645); assay: Serotonin functional uptake assay for human reuptake transporter; type: cell-based; settings: [3H]serotonin uptake, HEK-293 cells expressing human serotonin transporter; read-out: Human IC50 (nM) SERT
T2 construct: expressed in transfected cells; host or cells: HEK-293
Description: Serotonin Functional Uptake Assay for Human Reuptake Transporter
HEK-293 cells expressing human serotonin transporter were plated before the assay. […] Cells with internalized [^3H]serotonin were washed and the amount of tritium taken into cells is counted using a liquid scintillation counter to determine [^3H]serotonin uptake.

[3] = target: T3, recombinant human dopamine transporter (Homo sapiens, UniProt Q01959); assay: Dopamine functional uptake assay for human reuptake transporter; type: cell-based; settings: [3H]dopamine uptake, CHO-K1 or HEK293 cells expressing human dopamine transporter; read-out: Human IC50 (nM) DAT
T3 construct: expressed in transfected cells; host or cells: CHO-K1 or HEK293
Description: Dopamine Functional Uptake Assay for Human Reuptake Transporter
Either CHO-K1 or HEK293 cells expressing human recombinant dopamine transporter were plated before the assay. Test compound and/or vehicle was preincubated with cells in modified HEPES buffer pH 7.1 or pH 7.4 for 20 minutes at 18 to 25° C. and 50 nM [^3H]dopamine was then added for an additional timed incubation period (10 to 30 minutes). After washing the cells to remove [^3H]dopamine not internalized, the cells were lysed, and the amount of tritium in the lysate was measured using a liquid scintillation counter to determine [^3H]dopamine uptake. Non-specific binding of tritium was measured in a control reaction containing 10 μM nomifensine, and was subtracted from the counts for assays to correct for non-specific binding of tritium. Reduction of [^3H]dopamine uptake by 50 percent or more (≧50%) relative to an uninhibited control reaction indicates significant inhibitory activity.

[4] = in vivo; cited from earlier work
[5] = target: serotonin uptake sites (Homo sapiens, UniProt P31645); settings: versus racemic 1-(3,4-dichlorophenyl)-3-azabicyclo[3.1.0]hexane; cited from earlier work
Chain of serotonin uptake sites (P31645 whole entry): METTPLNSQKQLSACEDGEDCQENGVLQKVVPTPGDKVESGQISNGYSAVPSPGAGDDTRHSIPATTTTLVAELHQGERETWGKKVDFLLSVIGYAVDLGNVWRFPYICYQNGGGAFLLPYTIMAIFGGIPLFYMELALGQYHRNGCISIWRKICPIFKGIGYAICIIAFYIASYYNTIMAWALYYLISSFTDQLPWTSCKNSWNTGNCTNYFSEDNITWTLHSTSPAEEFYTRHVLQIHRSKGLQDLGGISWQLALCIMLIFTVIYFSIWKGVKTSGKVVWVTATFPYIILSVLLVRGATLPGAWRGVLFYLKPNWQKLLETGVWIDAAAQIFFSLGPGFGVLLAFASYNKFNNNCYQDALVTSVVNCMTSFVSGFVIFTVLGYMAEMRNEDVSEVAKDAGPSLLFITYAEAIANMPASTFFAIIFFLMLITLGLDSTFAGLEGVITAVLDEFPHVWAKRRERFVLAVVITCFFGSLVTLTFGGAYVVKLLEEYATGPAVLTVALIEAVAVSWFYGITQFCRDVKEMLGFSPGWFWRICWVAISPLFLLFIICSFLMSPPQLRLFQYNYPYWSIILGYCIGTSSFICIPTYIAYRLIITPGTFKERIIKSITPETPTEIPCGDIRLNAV

T1 sequence (P23975 whole entry): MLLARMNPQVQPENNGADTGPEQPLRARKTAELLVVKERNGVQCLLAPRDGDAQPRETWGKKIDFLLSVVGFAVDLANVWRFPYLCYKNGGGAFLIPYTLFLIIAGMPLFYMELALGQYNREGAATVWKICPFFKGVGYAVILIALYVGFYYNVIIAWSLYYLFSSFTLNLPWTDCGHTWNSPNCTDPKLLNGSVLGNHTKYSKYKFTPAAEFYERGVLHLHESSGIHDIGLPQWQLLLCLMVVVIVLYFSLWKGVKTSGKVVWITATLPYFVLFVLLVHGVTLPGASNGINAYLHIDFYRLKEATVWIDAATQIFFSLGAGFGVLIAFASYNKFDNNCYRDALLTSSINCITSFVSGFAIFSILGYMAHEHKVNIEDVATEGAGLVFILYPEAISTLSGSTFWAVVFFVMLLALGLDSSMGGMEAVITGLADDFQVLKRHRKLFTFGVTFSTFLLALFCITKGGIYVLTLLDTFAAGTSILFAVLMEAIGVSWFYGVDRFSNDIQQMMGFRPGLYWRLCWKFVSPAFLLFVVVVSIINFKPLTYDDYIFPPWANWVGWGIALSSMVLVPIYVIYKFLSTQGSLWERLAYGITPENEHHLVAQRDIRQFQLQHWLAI
T3 sequence (Q01959 whole entry): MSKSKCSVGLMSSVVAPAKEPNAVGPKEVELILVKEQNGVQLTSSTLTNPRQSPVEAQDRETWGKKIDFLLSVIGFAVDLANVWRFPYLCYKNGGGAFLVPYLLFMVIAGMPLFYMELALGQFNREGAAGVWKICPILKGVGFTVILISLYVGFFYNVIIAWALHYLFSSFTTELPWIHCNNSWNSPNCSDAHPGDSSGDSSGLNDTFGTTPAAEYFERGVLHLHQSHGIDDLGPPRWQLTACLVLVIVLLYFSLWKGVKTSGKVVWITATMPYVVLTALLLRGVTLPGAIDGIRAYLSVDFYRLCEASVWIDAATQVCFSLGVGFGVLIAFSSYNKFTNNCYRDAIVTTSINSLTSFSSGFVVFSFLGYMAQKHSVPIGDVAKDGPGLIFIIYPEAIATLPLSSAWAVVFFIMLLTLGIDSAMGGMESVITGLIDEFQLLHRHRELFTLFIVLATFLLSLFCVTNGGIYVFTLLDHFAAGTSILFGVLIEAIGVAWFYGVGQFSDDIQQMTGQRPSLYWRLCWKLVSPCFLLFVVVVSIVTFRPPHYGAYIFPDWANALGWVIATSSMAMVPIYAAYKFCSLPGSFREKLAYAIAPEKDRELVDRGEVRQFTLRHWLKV
T2 sequence (P31645 whole entry): as the sequence (P31645 whole entry) above

Row | Compound | IC50 ([1]; read-out: Human IC50 (nM) NET) [nM] | IC50 [2] [nM] | IC50 [3] [nM] | immobility in the tail suspension test [4] | affinity for the serotonin uptake sites compared with the racemic compound [5] | IC50 ([1]; Human IC50 (nM) NET) [nM]
1 | CC1C[C@@H](c2ccc(Cl)c(Cl)c2)c2ccccc2/C1=N\O (single isomer, unassigned) [Compound 58] | 2840 | 1700 | 436 | – | – | –
2 | Clc1ccc([C@@]23CNC[C@@H]2C3)cc1Cl (single isomer, unassigned) [DOV 21,947, (+)-1-(3,4-dichlorophenyl)-3-azabicyclo[3.1.0]hexane] | – | – | – | dose-dependent reduction in immobility | significantly greater affinity | –
3 | CN[C@H]1Cc2ccc(OC)cc2[C@@H](c2ccc(Cl)c(Cl)c2)C1 (stereo in doubt) [Compound 32a.3, 4-(3,4-dichlorophenyl)-6-methoxy-N-methyl-1,2,3,4-tetrahydronaphthalen-2-amine] | 1050 | 4380 | 1500 | – | – | –
4 | CN[C@H]1Cc2cc(OC)ccc2[C@@H](c2ccc(Cl)c(Cl)c2)C1 (stereo in doubt) [Compound 32c.3, 4-(3,4-dichlorophenyl)-7-methoxy-N-methyl-1,2,3,4-tetrahydronaphthalen-2-amine] | 198 | 105 | 92 | – | – | –
5 | CC(C1=Cc2ccccc2[C@H](c2ccc(Cl)c(Cl)c2)C1)N(C)C (stereo partly drawn) [Compound 48, 1-((S)-4-(3,4-dichlorophenyl)-3,4-dihydronaphthalen-2-yl)-N,N-dimethylethanamine] | 2720 | 134 | 2440 | – | – | –
6 | CC(N)[C@@H]1Cc2ccccc2[C@H](c2ccc(Cl)c(Cl)c2)C1 (stereo partly drawn) [Compound 51, 1-((2S,4S)-4-(3,4-dichlorophenyl)-1,2,3,4-tetrahydronaphthalen-2-yl)ethanamine] | – | 2 | 30 | – | – | 12
7 | CC1(C)C[C@@H](c2ccc(Cl)c(Cl)c2)c2ccccc2C1N (stereo partly drawn) [Compound 59, (4S)-4-(3,4-dichlorophenyl)-2,2-dimethyl-1,2,3,4-tetrahydronaphthalen-1-amine] | > 10000 | 5500 | 1080 | – | – | –
